Data set [1] deals with mechanical allodynia in carrageenan-injected rats. As to the kind of experiment: Mechanical allodynia (von Frey, up and down method) in rat carrageenan-induced paw edema model. Format: in vivo, Male Wistar rats. The settings on record: 3 h post-carrageenan; ipsilateral paw; n=8; vehicle 8.25±1.61 g, baseline 80±7.56 g. (The carrageenan paw model is a standard test of acute inflammation.)

Data set [2] concerns carrageenan-induced rat paw edema. As to the kind of experiment: Carrageenan-induced rat paw edema test. Type of data set: in vivo, Male Wistar rats. As to conditions: for volume reduction of paw edema in rats (%): vs vehicle-treated group, single oral dose; for paw thickness: mean±SEM, n=8, vehicle 9.55±0.47 mm.
For data set [3] the following is noted: cited from earlier work.
On the set-up of data set [4]: species or system Sprague Dawley male rat. As to conditions: rat, in vivo, po.
From the text: Sprague Dawley male rat (body weights 310 gr at the time of the treatment) were used in this study. The animals were originally supplied by Harlan, Italy. Once receipt from the supplier, the animals were subjected to health examinations and acceptance. The animals were housed, in a group of three, in cages suitable for the species and were routinely kept in the following environment except for short periods of time where experimental procedures dictated otherwise. The animals were acclimatized to local housing conditions for approximately 5 days. The animals were housed in a single, exclusive room, air conditioned to provide a minimum of 15 air changes/hour. The environmental controls were set to maintain temperature within the range 22° C. and relative humidity within the range 50 to 60% with an approximate 12 hour light and 12 hour dark cycle that is controlled automatically. Food (Mucedola Standard GLP diet) and water were available ad libitum throughout the study. All animals were weighed on the day of each treatment. Clinical signs were monitored at regular intervals throughout the study in order to assess any reaction to treatment. Each animal was uniquely identified with a coloured spray on the back before the experiment. At the end of the study animals were sacrificed by exsanguination under anaesthesia. […]

In turn, `CC(C(=O)O)c1ccc(-c2ccccc2)c(F)c1` (stereo not drawn) [Flurbiprofen] displayed a paw withdrawal threshold in data set [1] of 44.62 ± 14.43 g. The “volume reduction of paw edema in rats (%)” value (“volume reduction … (%)” for short) is reported as −18.20% in data set [2] (1 h post-carrageenan), −31.50% in data set [2] (3 h post-carrageenan) and −32.0% in data set [2] (5 h post-carrageenan). The paw thickness in data set [2] (5 h post-carrageenan) came out at 6.5±0.28 mm.

With `NCC1(CC(=O)O)CCCCC1` [Gabapentin], in data set [3] (after oral administration (Quintero 2017)), the “time to utmost level in plasma” value is 3 to 4 h. Moreover, the excretion half-life entry in data set [3] (expelled by the renal system) is on record as “roughly 6 hours”. For the same compound, in data set [1], the paw withdrawal threshold worked out at 66.5 ± 11 g. For the same compound, the “volume reduction … (%)” value is on record as −1.93% in data set [2] (1 h post-carrageenan), −16.21% in data set [2] (3 h post-carrageenan) and −17.27% in data set [2] (5 h post-carrageenan). Besides, in data set [2] (5 h post-carrageenan), the paw thickness came to 7.45±0.26 mm.

On to `COc1ccc2c(c1)c(CC(=O)O)c(C)n2C(=O)c1ccc(Cl)cc1` [Indomethacin], for which the paw withdrawal threshold in data set [1] is 36 ± 7.21 g. The results for the “volume reduction … (%)” value in data set [2] (1 h post-carrageenan), in data set [2] (3 h post-carrageenan) and in data set [2] (5 h post-carrageenan) were −17.68%, −35.27% and −40.45%, respectively. The paw thickness in data set [2] (5 h post-carrageenan) is 5.69±0.27 mm.

“Flurbiprofen-Lysine-Gabapentin [Flur/Lys/Gaba]” had a paw withdrawal threshold in data set [1] of 85.75 ± 9.86 g. The “volume reduction … (%)” value in data set [2] (1 h post-carrageenan) is recorded as −21.80%. For the same compound, in data set [2] (3 h post-carrageenan), the “volume reduction … (%)” value is −39.91%. Moreover, in data set [2] (5 h post-carrageenan), the paw thickness is reported as 5.51±0.42 mm and the “volume reduction … (%)” value is −42.27%. Moreover, in data set [4], the “Cmax (ng/mL) Flurbiprofen” value is 14725 ± 1267 ng/mL and the “Cmax (ng/mL) Gabapentin” value stood at 3008 ± 246 ng/mL.
